Source: patent US20250152559A1, “METHODS FOR TREATING MYC-AMPLIFIED CANCER” (The Governing Council of the University of Toronto, priority 2023, published 2025)

Experiments:
Assay in all cases: PrestoBlue cell viability, 72-hour treatment, limiting dilution
MED411-FHTC = assay type: cell-based; details: Homo sapiens, G3MB-MYC, read-out: Brequinar IC50
Method: (§1) SU_MB002, NSC194, NSC197 and NSC201FT, MBT375 and MED411FHTC were maintained in Neurocult Complete (NCC) media (Stem Cell Technologies; catalogue #05751). D425 and D458 were maintained in Dulbecco's […] (DMEM) containing 10% fetal bovine serum (FBS). HD-MB03 were maintained in NCC containing 10% FBS. All cell lines were conditioned in NCC for a minimum of 48 hours before experimentation. SU_MB002 and HD-MB03 G3MB-MYC PDOX were obtained from collaborators as kind gifts and are frequently passaged in vivo. SU_MB002, a treatment-refractory group 3 MB acquired at autopsy was received from Dr. Yoon-Jae Cho. Dr. Till Milde provided HD-MB03, a treatment-naïve group 3 MBs. ICB1299 group 4 MB cells were obtained as a gift from Silvia Marino's laboratory^62. MBT375 was established in-house from a surgical specimen of group 4 MB, which was engrafted in the cerebellum of mice for serial propagation. Nanostring genotyping was used to confirm group 4 medulloblastoma identity. MED411FHTC PDOX were procured from Dr. Olson's brain tumor research lab. D425 and D458 were obtained from the ATCC. All cell lines were fingerprint verified by short tandem repeat (STR) profiling. NSC194, NSC197 and NSC201FT were derived in-house from donor fetal brain tissues^63.
(§2) For assessment of viability, cells were seeded into 96-well plates at a density of 1,000 cells per well. Viability was measured by adding PrestoBlue™ diluted 1:10 (ThermoFisher Scientific; Catalogue #A13261) followed by a 4-hour incubation. Relative fluorescence intensity was determined via background correction. To assess tumorsphere forming capacity, cells were seeded at a low density (200 cells per well) and incubated for 3-5 days. Tumorspheres were manually counted thereafter.

D458 = assay type: cell-based; details: Homo sapiens; D458, G3MB-MYC; read-out: Brequinar IC50
Method: as §1, §2

D425 = assay type: cell-based; details: Homo sapiens; D425, G3MB-MYC; read-out: Brequinar IC50
Method: as §1, §2

HD-MB03 = assay type: cell-based; details: Homo sapiens; HD-MB03, G3MB-MYC; read-out: Brequinar IC50
Method: as §1, §2

SU_MB002 = assay type: cell-based, human; details: for potency on tumor cell viability: SU_MB002 tumor cells
Method: as §1, §2

Compound: Cc1c(-c2ccc(-c3ccccc3F)cc2)nc2ccc(F)cc2c1C(=O)O [Brequinar]
- IC50 (MED411-FHTC): 137 nM
- IC50 (D458): 110 nM
- IC50 (D425): 122 nM
- IC50 (HD-MB03): 54.4 nM
- IC50 (SU_MB002; Homo sapiens, SU_MB002, G3MB-MYC, read-out: Brequinar IC50): 302 nM
- tumor cell proliferation and viability with uridine supplementation (SU_MB002; SU_MB002, media with uridine hydrochloride (100 μM)): rescues
- potency on tumor cell viability (SU_MB002): nanomolar range

Compound: COc1ccc([C@H]2c3[nH]c4ccc(Cl)cc4c3CCN2C(=O)Oc2ccc(Cl)cc2)cc1 [PTC299]
- potency on tumor cell viability (SU_MB002): nanomolar range
